Test results taken from ChEMBL document CHEMBL1152085, “Novel 3-deoxy-3-descladinosyl-6-O-methyl erythromycin a analogues. Synthesis and in vitro activity” (1997).
Converted amounts (≈) assume the structure as drawn.

Columns and labels:
Assay type in all cases: functional
Streptococcus pyogenes [1] = assay: Tested in vitro for minimum inhibitory concentration to produce antibacterial activity against Streptococcus pyogenes EES61
Streptococcus pyogenes [2] = assay: Tested in vitro for minimum inhibitory concentration to produce antibacterial activity against Streptococcus pyogenes 930
Staphylococcus aureus [3] = assay: Tested in vitro for minimum inhibitory concentration to produce antibacterial activity against Staphylococcus aureus A-5278 in presence of erythromycin A
Staphylococcus aureus [4] = assay: Tested in vitro for minimum inhibitory concentration to produce antibacterial activity against Staphylococcus aureus NCTC-10649M in presence of erythromycin A
Staphylococcus aureus [5] = assay: Tested in vitro for minimum inhibitory concentration to produce antibacterial activity against Staphylococcus aureus CMX 642A in presence of erythromycin A
Staphylococcus aureus [6] = assay: Tested in vitro for minimum inhibitory concentration to produce antibacterial activity against Staphylococcus aureus ATCC 6538P in presence of erythromycin A
Streptococcus agalactiae [7] = assay: Tested in vitro for minimum inhibitory concentration to produce antibacterial activity against Streptococcus agalactiae CMX 508
Staphylococcus aureus [8] = assay: Tested in vitro for minimum inhibitory concentration to produce antibacterial activity against Staphylococcus aureus A5177
[9] = system: Staphylococcus epidermidis; assay: Tested in vitro for minimum inhibitory concentration to produce antibacterial activity against Staphylococcus epidermidis 3519
Streptococcus pyogenes [10] = assay: Tested in vitro for minimum inhibitory concentration to produce antibacterial activity against Streptococcus pyogenes PIU 2548
Streptococcus equinus [11] = assay: Tested in vitro for minimum inhibitory concentration to produce antibacterial activity against Streptococcus bovis A-5169
Staphylococcus aureus [12] = assay: Tested in vitro for minimum inhibitory concentration to produce antibacterial activity against Staphylococcus aureus A-5278
Streptococcus equinus [13] = assay: Tested in vitro for minimum inhibitory concentration to produce antibacterial activity against Streptococcus bovis A-5169 in presence of erythromycin A
Streptococcus pyogenes [14] = assay: Tested in vitro for minimum inhibitory concentration to produce antibacterial activity against Streptococcus pyogenes PIU 2548 in presence of erythromycin A
Escherichia coli [15] = assay: Tested in vitro for minimum inhibitory concentration to produce antibacterial activity against Escherichia coli SS
Escherichia coli [16] = assay: Tested in vitro for minimum inhibitory concentration to produce antibacterial activity against Escherichia coli JUHL in presence of erythromycin A
Staphylococcus aureus [17] = assay: Tested in vitro for minimum inhibitory concentration to produce antibacterial activity against Staphylococcus aureus 1775 in presence of erythromycin A
Escherichia coli [18] = assay: Tested in vitro for minimum inhibitory concentration to produce antibacterial activity against Escherichia coli SS in presence of erythromycin A
Staphylococcus aureus [19] = assay: Tested in vitro for minimum inhibitory concentration to produce antibacterial activity against Staphylococcus aureus NCTC-10649M
Staphylococcus aureus [20] = assay: Tested in vitro for minimum inhibitory concentration to produce antibacterial activity against Staphylococcus aureus A5177 in presence of erythromycin A
[21] = system: Staphylococcus epidermidis; assay: Tested in vitro for minimum inhibitory concentration to produce antibacterial activity against Staphylococcus epidermidis 3519 in presence of erythromycin A
Streptococcus pyogenes [22] = assay: Tested in vitro for minimum inhibitory concentration to produce antibacterial activity against Streptococcus pyogenes EES61 in presence of erythromycin A
Enterococcus faecium [23] = assay: Tested in vitro for minimum inhibitory concentration to produce antibacterial activity against Enterococcus faecium ATCC 8043 in presence of erythromycin A
Staphylococcus aureus [24] = assay: Tested in vitro for minimum inhibitory concentration to produce antibacterial activity against Staphylococcus aureus CMX 642A
Staphylococcus aureus [25] = assay: Tested in vitro for minimum inhibitory concentration to produce antibacterial activity against Staphylococcus aureus ATCC 6538P
Enterococcus faecium [26] = assay: Tested in vitro for minimum inhibitory concentration to produce antibacterial activity against Enterococcus faecium ATCC 8043
Staphylococcus aureus [27] = assay: Tested in vitro for minimum inhibitory concentration to produce antibacterial activity against Staphylococcus aureus CMX 553
Staphylococcus aureus [28] = assay: Tested in vitro for minimum inhibitory concentration to produce antibacterial activity against Staphylococcus aureus 1775
Streptococcus agalactiae [29] = assay: Tested in vitro for minimum inhibitory concentration to produce antibacterial activity against Streptococcus agalactiae CMX 508 in presence of erythromycin A
Staphylococcus aureus [30] = assay: Tested in vitro for minimum inhibitory concentration to produce antibacterial activity against Staphylococcus aureus CMX 553 in presence of erythromycin A
Escherichia coli [31] = assay: Tested in vitro for minimum inhibitory concentration to produce antibacterial activity against Escherichia coli JUHL
Streptococcus pyogenes [32] = assay: Tested in vitro for minimum inhibitory concentration to produce antibacterial activity against Streptococcus pyogenes 930 in presence of erythromycin A

For `CC[C@H]1OC(=O)[C@H](C)[C@@H](O[C@H]2C[C@@](C)(OC)[C@@H](O)[C@H](C)O2)[C@H](C)[C@@H](O[C@@H]2O[C@H](C)C[C@H](N(C)C)[C@H]2O)[C@](C)(OC)C[C@@H](C)C(=O)[C@H](C)[C@@H](O)[C@]1(C)O` [CLARITHROMYCIN], the MIC (Streptococcus pyogenes [1]) was 0.01 µg/mL (≈ 0.0134 µM), the MIC (Streptococcus pyogenes [2]) was greater than 100 µg/mL and the MIC (Staphylococcus aureus [3]) was greater than 100 µg/mL. For the same compound, the MIC (Staphylococcus aureus [4]) was 0.03 µg/mL, the MIC (Staphylococcus aureus [5]) was 0.03 µg/mL and the MIC (Staphylococcus aureus [6]) was 0.2 µg/mL. It also gave an MIC (Streptococcus agalactiae [7]) of 0.02 µg/mL (≈ 0.0267 µM), an MIC (Staphylococcus aureus [8]) of 1.56 µg/mL (≈ 2.09 µM) and an MIC [9] of 0.12 µg/mL (≈ 0.16 µM). The MIC (Streptococcus pyogenes [10]) was 8 µg/mL (≈ 10.7 µM), the MIC (Streptococcus equinus [11]) was 0.01 µg/mL (≈ 0.0134 µM) and the MIC (Staphylococcus aureus [12]) was greater than 100 µg/mL. It also gave an MIC (Streptococcus equinus [13]) of 0.01 µg/mL, an MIC (Streptococcus pyogenes [14]) of 8 µg/mL and an MIC (Escherichia coli [15]) of 0.39 µg/mL (≈ 0.521 µM). For the same compound, the MIC (Escherichia coli [16]) was 50 µg/mL, the MIC (Staphylococcus aureus [17]) was greater than 100 µg/mL and the MIC (Escherichia coli [18]) was 0.39 µg/mL. For the same compound, the MIC (Staphylococcus aureus [19]) was 0.03 µg/mL (≈ 0.0401 µM), the MIC (Staphylococcus aureus [20]) was 3.1 µg/mL and the MIC [21] was 0.03 µg/mL. The MIC (Streptococcus pyogenes [22]) was 0.01 µg/mL, the MIC (Enterococcus faecium [23]) was 0.05 µg/mL and the MIC (Staphylococcus aureus [24]) was 0.03 µg/mL (≈ 0.0401 µM). It also gave an MIC (Staphylococcus aureus [25]) of 0.2 µg/mL (≈ 0.267 µM), an MIC (Enterococcus faecium [26]) of 0.05 µg/mL (≈ 0.0668 µM) and an MIC (Staphylococcus aureus [27]) of 0.12 µg/mL (≈ 0.16 µM). It also gave an MIC (Staphylococcus aureus [28]) greater than 100 µg/mL, an MIC (Streptococcus agalactiae [29]) of 0.02 µg/mL and an MIC (Staphylococcus aureus [30]) of 0.12 µg/mL. The MIC (Escherichia coli [31]) was 100 µg/mL (≈ 134 µM) and the MIC (Streptococcus pyogenes [32]) was greater than 100 µg/mL.
